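Briefly, cells in 96-well plates were exposed to five compound concentrations for 48 h, and endpoints were estimated by linear interpolation. Here, GI50 denotes the concentration required for 50% inhibition of growth. At the TGI there is no net growth.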
Key:
Assay in all cases: NCI-60 cell line screen, 48 h
A549 NSCLC = system: A549 NSCLC
HCC-2998 colon = system: HCC-2998 colon
HOP-62 NSCLC = system: HOP-62 NSCLC
K-562 leukemia = system: K-562 leukemia
LOX IMVI melanoma = system: LOX IMVI melanoma
MOLT-4 leukemia = system: MOLT-4 leukemia
NCI-H23 lung = system: NCI-H23 lung
SNB-19 CNS = system: SNB-19 CNS
SR leukemia = system: SR leukemia
T-47D breast = system: T-47D breast

| SMILES | GI50 (A549 NSCLC) | TGI (A549 NSCLC) | GI50 (HCC-2998 colon) | TGI (HCC-2998 colon) | GI50 (HOP-62 NSCLC) | TGI (HOP-62 NSCLC) | GI50 (K-562 leukemia) | TGI (K-562 leukemia) | GI50 (LOX IMVI melanoma) | TGI (LOX IMVI melanoma) | GI50 (MOLT-4 leukemia) | TGI (MOLT-4 leukemia) | GI50 (NCI-H23 lung) | TGI (NCI-H23 lung) | GI50 (SNB-19 CNS) | TGI (SNB-19 CNS) | GI50 (SR leukemia) | TGI (SR leukemia) | GI50 (T-47D breast) | TGI (T-47D breast) |
| --- | --- | --- | --- | --- | --- | --- | --- | --- | --- | --- | --- | --- | --- | --- | --- | --- | --- | --- | --- | --- |
| Cc1nn(C)c(COc2ccc(N3CCN(S(=O)(=O)N(C)C)CC3)cc2)c1-c1cccc2c(CCCOc3cccc4ccccc34)c(C(=O)O)n(CCN3CCOCC3)c12 | 4.49 µM | 16.9 µM | 2.81 µM | 9.34 µM | 3.03 µM | 14.4 µM | 3.84 µM | > 100 µM | 3.16 µM | 11.6 µM | 3.52 µM | 16.5 µM | 3.54 µM | 14.7 µM | 3.63 µM | 23.4 µM | 3.13 µM | 11 µM | 2.4 µM | 9.38 µM |
| COc1ccc(C2=CC(c3ccc(OC)cc3Br)N3C=CSC3=N2)cc1 (stereo not given) | 10.5 µM | 39 µM | 5.38 µM | 17.8 µM | 10.5 µM | 24.8 µM | 2.47 µM | 8.26 µM | 2 µM | 4.03 µM | 2.93 µM | 9.64 µM | 15.2 µM | 42.8 µM | 9.79 µM | 25.3 µM | 1.73 µM | 7.1 µM | 9.21 µM | 40.4 µM |
| CCOC(=O)c1cc2c(n1Cc1cc(OC)c(OC)c(OC)c1)-c1oncc1CCC2 | 0.234 µM | 65.4 µM | 0.335 µM | 5.17 µM | 0.447 µM | 37.2 µM | 0.0973 µM | > 100 µM | 0.401 µM | > 35.7 µM | 0.406 µM | > 44.8 µM | 0.388 µM | > 43.2 µM | 0.604 µM | > 100 µM | 0.0464 µM | 5.5 µM | 0.373 µM | 53.4 µM |
| Nc1c(C(=O)c2cccc(-c3cccnc3)c2)cnn1-c1ccc(F)cc1F | 2.05 µM | > 25 µM | 9.43 µM | > 25 µM | 5.49 µM | > 25 µM | 0.962 µM | 24.5 µM | 5.76 µM | > 25 µM | 7.85 µM | > 25 µM | 4.41 µM | > 25 µM | 11.7 µM | > 25 µM | 0.823 µM | > 6.83 µM | 1.57 µM | > 25 µM |
| COC(=O)Nc1nc2ccc(Oc3cccc(NC(=O)Nc4cc(C(F)(F)F)ccc4F)c3)cc2[nH]1 | 16 µM | > 25 µM | 13.2 µM | > 25 µM | 13.3 µM | > 25 µM | 0.452 µM | > 25 µM | 9.08 µM | > 25 µM | 15.8 µM | > 25 µM | 11.3 µM | > 25 µM | > 25 µM | > 25 µM | 10.2 µM | > 25 µM | 8.64 µM | > 25 µM |
| COc1ccc(C2=C(c3ccc(OC)c(OC)c3)C(=O)N3CCCC3C2)cc1 (stereo not given) | 15.1 µM | > 100 µM | 53.6 µM | > 100 µM | 14.7 µM | > 100 µM | 7.32 µM | > 100 µM | 10.4 µM | > 52.7 µM | 2.72 µM | 19.6 µM | > 90.4 µM | > 100 µM | 63.8 µM | > 100 µM | 3.02 µM | 12.8 µM | 42.3 µM | > 100 µM |
| Cn1cccc1-c1cc(-c2ccc(Br)cc2)[nH]c(=O)c1C#N | > 100 µM | > 100 µM | > 100 µM | > 100 µM | > 100 µM | > 100 µM | > 100 µM | > 100 µM | > 100 µM | > 100 µM | 57.1 µM | > 100 µM | > 100 µM | > 100 µM | > 100 µM | > 100 µM | > 100 µM | > 100 µM | > 100 µM | > 100 µM |
| CN(C)CC1CCC2=C(C1=O)C(c1ccc(Cl)c(Cl)c1)C1=C(CCC(CN(C)C)C1=O)O2 (stereo not given) | 16.2 µM | 32.2 µM | 0.0835 µM | 14.6 µM | 12.5 µM | 25.2 µM | 2.46 µM | 6.34 µM | 3.14 µM | 15.2 µM | 5.18 µM | 22.1 µM | 3.6 µM | 11.9 µM | 16 µM | 29.7 µM | 1.44 µM | 5.37 µM | 2.05 µM | 7.9 µM |
| COC(=N)c1c(N)[n+]([O-])c2ccc(F)cc2[n+]1[O-] | > 100 µM | > 100 µM | > 100 µM | > 100 µM | > 100 µM | > 100 µM | > 100 µM | > 100 µM | > 100 µM | > 100 µM | > 100 µM | > 100 µM | > 100 µM | > 100 µM | > 100 µM | > 100 µM | 47.9 µM | > 100 µM | > 100 µM | > 100 µM |
| N#CSCc1ccc(Cl)c(CSC#N)c1 | 1.44 µM | > 58.4 µM | 6.61 µM | 34.5 µM | 7.25 µM | > 66.9 µM | 0.0576 µM | > 45.5 µM | 0.151 µM | 13.6 µM | 0.109 µM | 53.5 µM | 0.913 µM | 44.5 µM | 10.5 µM | > 100 µM | 0.0642 µM | 19.2 µM | 15.7 µM | 51.8 µM |
| COc1ccc(/C=C(\C(=O)NCc2cccnc2)S(=O)(=O)c2ccccc2)cc1OC | 2.86 µM | 13.4 µM | 3.91 µM | 15.1 µM | 3.51 µM | 11.4 µM | 3.33 µM | > 100 µM | 3.09 µM | 11.8 µM | 3.35 µM | 89.1 µM | 3.01 µM | 10.6 µM | 3.69 µM | 13.1 µM | 3.3 µM | > 100 µM | 2.59 µM | 10.8 µM |
| COc1ccc(CC(=O)c2ccc(O)cc2O)cc1 | > 100 µM | > 100 µM | > 100 µM | > 100 µM | > 100 µM | > 100 µM | 40.3 µM | > 100 µM | > 100 µM | > 100 µM | 57.4 µM | > 100 µM | 63.5 µM | > 100 µM | > 100 µM | > 100 µM | > 100 µM | > 100 µM | 56.7 µM | > 100 µM |
| CC(=O)[O][Sn]([CH2]c1ccccc1)([CH2]c1ccccc1)[CH2]c1ccccc1 | > 8.99 µM | > 10 µM | > 6.73 µM | > 10 µM | > 5.55 µM | > 6.75 µM | 3.4 µM | > 4.64 µM | 3.79 µM | > 4.64 µM | > 10 µM | > 10 µM | > 5.98 µM | > 7.83 µM | > 10 µM | > 10 µM | 3.76 µM | > 4.64 µM | > 10 µM | > 10 µM |
| O1[As]2O[As]3O[As]1O[As](O2)O3 | 3.29 µM | 14.9 µM | 1.65 µM | 3.6 µM | 1 µM | 2.55 µM | 0.317 µM | 2.99 µM | 0.657 µM | 2.13 µM | 1.28 µM | 4.58 µM | 0.733 µM | 4.98 µM | 1.65 µM | 4.44 µM | 0.295 µM | 3.7 µM | 0.474 µM | 12.6 µM |
| CN1CCc2[nH]nc(-c3n[nH]c4c3CN(C)CC4)c2C1 | – | > 100 µM | – | > 100 µM | – | > 100 µM | – | > 100 µM | – | > 100 µM | – | > 100 µM | – | > 100 µM | – | > 100 µM | – | > 100 µM | – | > 100 µM |
| CCN1C(=O)N(CC)C2C1NN=c1s/c(=C\c3ccccn3)c(=O)n12 (stereo not given) | 2.15 µM | > 100 µM | 3.17 µM | > 100 µM | 2.91 µM | > 100 µM | 0.446 µM | > 100 µM | 5.71 µM | > 100 µM | 1.57 µM | > 100 µM | 3.82 µM | > 100 µM | 3.04 µM | > 100 µM | 0.455 µM | > 100 µM | 4.84 µM | > 100 µM |
